Laboratory results: patent US11524012B1, “Quinolone analogs and their salts, compositions, and method for their use” (Senhwa Biosciences, Inc., priority 2018, dated 2022)

Experiments:
[1] = Pharmacokinetic parameters in preclinical species (all species); type: in vivo; details: ICR (mouse), SD (rat), dog, monkey, plasma, intravenous, mice, rats, dogs and monkeys, read-out: steady-state volumes of distribution (Vss)
[2] = Toxicokinetics in rat toxicity study (IV infusion); type: in vivo; details: for half-life / AUC(0-inf) / Cmax / Tmax: rat, plasma
Experimental: Rats: Pharmacokinetic properties of Compound I were evaluated in a rat toxicity study across a range of IV doses: 5, 10, and 20 mg/kg/dose administered as ready-to-use formulation (see Example 1). Compound I was administered by intravenous infusion via a catheter placed into the lateral tail vein once per week over a period of 1 hour on Days 1, 8, and 15. Blood samples for toxicokinetic (TK) analysis were collected from treated TK animals predose, within 3 minutes of end of infusion, and at 1, 3, 5, 11, 23, and 47 hours post end of infusion on Day 1 and within 3 minutes of end of infusion and 47 hours post end of infusion on Day 15. The TK parameters were determined for Compound I from the mean plasma concentrations per gender and group, using a non-compartmental method.

[3] = Single and repeat dose toxicology (IV); type: in vivo, dogs
Description: The non-clinical safety program included single and repeat dose toxicology studies in rats and dogs. These acute and subacute dose-ranging studies conducted in rats and dogs permitted the characterization of the toxicity of single and multiple doses of IV administration of Compound I using various dosing schedules, and also provided the rationale for the selection of doses to be studied in the single dose study with recovery after a 21-day non-dosing period in these species.
At higher dose exposures, a hypersensitivity-like reaction consistent with mast cell degranulation was also encountered.

[4] = Pharmacokinetic study in patients with advanced hematologic cancers (IV infusion, LC/MS/MS); type: in vivo, human; details: for AUC(0-t) / Cmax / Tmax / half-life: human, plasma
Experimental: Pharmacokinetic studies and dose escalation studies were conducted in adult patients with advanced hematologic cancers at 25, mg/m^2 (ready-to-use formulation), 50 mg/m^2 (ready-to-use formulation), 100 mg/m^2 (ready-to-use formulation), 170 mg/m^2 (lyophilized formulation), and 250 mg/m^2 (lyophilized formulation) dose levels of Compound I. Each patient received one dose over 1 hour by IV infusion, once every three weeks±2 days (Cohort 1).
Dose escalations were planned in 7 cohorts (25-450 mg/m2), in an accelerated design, with change to 3+3 design based on predefined toxicity criteria. 16 patients (6 myeloma, 2 Hodgkin lymphoma, 6 Non Hodgkin lymphoma (NHL), 1 TPLL, 1 CLL) were treated in 5 cohorts (25-250 mg/m2), for a median of 2 (1-18) cycles.
250 mg/m^2 dose of Compound I was prepared according to Example 2 (lyophilized composition with mannitol) and reconstituted with 5% glucose in sterile water for IV infusion.
Levels of Compound I in patient's plasma were analyzed by liquid chromatography tandem mass spectrometry (LC/MS/MS) assay. Experimental procedures of the validated methods are summarized below.
Calibration standards and QC samples were prepared by spiking the appropriate working solution and the internal standard spiking solution into blank human plasma (NaHep). Each sample was extracted with ACN and then centrifuged at 13700×g (12000 rpm) for 5 minutes. The extracted top layer was transferred to another disposable glass tube and evaporated to complete dryness in a water-bath at 40° C. under a stream of air or nitrogen. The dried sample was reconstituted with a solution of 50:50:0.1 (v/v) mixture of ACN:deionized water:formic acid. The reconstituted sample was transferred to a LC vial for LC/MS/MS analysis.
The analytical method parameters are summarized below: • Isocratic elution using 7:3 (v/v) ACN: 75 mM Ammonium Formate (pH 2.5) as the mobile phase • Flow rate: 0.5 mL/min • Run time: Originally validated at 10 min; later validated at 6 min in this study • Column: Zorbax 300-SCX, 3×50 mm, […] • Injection volume: 5 μL • MS mode: ESI positive MRM mode

Plasma protein binding = type: in vitro ADME; details: mouse plasma
Description: where XEN represents the xenograft compartment, kgrowth is the rate constant for tumor growth, kdrug is the rate constant for drug-induced antitumor inhibition, and fcp is the predicted unbound concentration of Compound I in plasma. In this model, the PD effect was driven using the free (not total) concentration of Compound I obtained using the developed mouse PK model. An averaged unbound fraction of 0.2% (99.8% bound) was used based on measured values for protein binding in mouse plasma. Five different xenograft types (CTG-0012, CTG-0888, HBCx-10, HBCx-14, and HBCx-15) were used in the development of the Compound I TGI model.
The unbound fraction to drive response in the PK-PD model was calculated using plasma protein binding data from mouse, dog and human species.

[5] = 1 hour IV infusion, 5 mg/kg/dose, Female, Day 1 (first dose)
[6] = 1 hour IV infusion, 5 mg/kg/dose, Male, Day 1 (first dose)
[7] = 1 hour IV infusion, 10 mg/kg/dose, Female, Day 1 (first dose)
[8] = 1 hour IV infusion, 10 mg/kg/dose, Male, Day 1 (first dose)
[9] = 1 hour IV infusion, 20 mg/kg/dose, Female, Day 1 (first dose)
[10] = 1 hour IV infusion, 20 mg/kg/dose, Male, Day 1 (first dose)
[11] = 25 mg/m^2 (ready-to-use formulation), 1 hour IV infusion, first dose (first cycle), N 3
[12] = 50 mg/m^2 (ready-to-use formulation), 1 hour IV infusion, first dose (first cycle), N 4
[13] = 100 mg/m^2 (ready-to-use formulation), 1 hour IV infusion, first dose (first cycle), N 4
[14] = 170 mg/m^2 (lyophilized formulation), 1 hour IV infusion, first dose (first cycle), N 3
[15] = 250 mg/m^2 (lyophilized formulation), 1 hour IV infusion, first dose (first cycle), N 2

Cc1cnc(CNC(=O)c2c(=O)c3ccc(N4CCCN(C)CC4)nc3n3c2sc2ccccc23)cn1 [Compound I, 2-(4-Methyl-[1,4]diazepan-1-yl)-5-oxo-5H-7-thia-1,11b-diaza-benzo[c]fluorene-6-carboxylic acid (5-methyl-pyrazin-2-ylmethyl)-amide]
Vd [1]: 0.15 to 22 L/kg | AUC0-inf dose proportionality (in words) ([2]; IV 5-20 mg/kg/dose): approximately dose proportional | half-life ([2]; both sexes, IV infusion 5, 10, 20 mg/kg/dose, Day 1, read-out: terminal half-life): 7 to 16.8 h | AUC(0-inf) [2, 5]: 20800 ng·h/mL | Cmax [2, 5]: 2520 ng/mL | Tmax [2, 5]: 1 h | half-life ([2]; 1 hour IV infusion, 5 mg/kg/dose, Female, Day 1 (first dose), read-out: T1/2 (converted)): 9.3 h | AUC(0-inf) [2, 6]: 24500 ng·h/mL | Cmax [2, 6]: 3360 ng/mL | Tmax [2, 6]: 1 h | half-life ([2]; 1 hour IV infusion, 5 mg/kg/dose, Male, Day 1 (first dose), read-out: T1/2 (converted)): 7 h | AUC(0-inf) [2, 7]: 44800 ng·h/mL | Cmax [2, 7]: 3810 ng/mL | Tmax [2, 7]: 2 h | half-life ([2]; 1 hour IV infusion, 10 mg/kg/dose, Female, Day 1 (first dose), read-out: T1/2 (converted)): 7.6 h | AUC(0-inf) [2, 8]: 42100 ng·h/mL | Cmax [2, 8]: 4500 ng/mL | Tmax [2, 8]: 1 h | half-life ([2]; 1 hour IV infusion, 10 mg/kg/dose, Male, Day 1 (first dose), read-out: T1/2 (converted)): 8.1 h | AUC(0-inf) [2, 9]: 80600 ng·h/mL | Cmax [2, 9]: 4960 ng/mL | Tmax [2, 9]: 6 h | half-life ([2]; 1 hour IV infusion, 20 mg/kg/dose, Female, Day 1 (first dose), read-out: T1/2 (converted)): 16.8 h | AUC(0-inf) [2, 10]: 79200 ng·h/mL | Cmax [2, 10]: 6810 ng/mL | Tmax [2, 10]: 1 h | half-life ([2]; 1 hour IV infusion, 20 mg/kg/dose, Male, Day 1 (first dose), read-out: T1/2 (converted)): 11.4 h | reversibility of dose limiting toxicity ([3]; following an IV dose): spontaneously reversible within three weeks | hypersensitivity-like reaction ([3]; higher dose exposures): urticarial or hive-like rash around the ears, eyes and muzzle | dose limiting toxicity ([3]; single and multiple IV doses): decreased blood cell count in leukocyte, erythrocyte and megakaryocyte cell lines | resolution of hypersensitivity-like reaction ([3]; with or without antihistamine treatment): fully resolved by three hours following the dose | AUClast dose proportionality (in words) ([4]; 25-250 mg/m^2): not dose proportional | AUC(0-t) [4, 11]: 2060 ng·h/mL | Cmax [4, 11]: 297 ng/mL | Tmax ([4]; 25 mg/m^2 (ready-to-use formulation), 1 hour IV infusion, first dose (first cycle), N 3, median): 1 h | half-life ([4]; 25 mg/m^2 (ready-to-use formulation), 1 hour IV infusion, first dose (first cycle), N 3, read-out: T1/2 (converted)): 23.2 h | AUC(0-t) [4, 12]: 3650 ng·h/mL | Cmax [4, 12]: 384 ng/mL | Tmax ([4]; 50 mg/m^2 (ready-to-use formulation), 1 hour IV infusion, first dose (first cycle), N 4, median): 0.75 h | half-life ([4]; 50 mg/m^2 (ready-to-use formulation), 1 hour IV infusion, first dose (first cycle), N 4, read-out: T1/2 (converted)): 39.8 h | AUC(0-t) [4, 13]: 10100 ng·h/mL | Cmax [4, 13]: 636 ng/mL | Tmax ([4]; 100 mg/m^2 (ready-to-use formulation), 1 hour IV infusion, first dose (first cycle), N 4, median): 0.5 h | half-life ([4]; 100 mg/m^2 (ready-to-use formulation), 1 hour IV infusion, first dose (first cycle), N 4, read-out: T1/2 (converted)): 58.4 h | AUC(0-t) [4, 14]: 16800 ng·h/mL | Cmax [4, 14]: 1710 ng/mL | Tmax ([4]; 170 mg/m^2 (lyophilized formulation), 1 hour IV infusion, first dose (first cycle), N 3, median): 0.52 h | half-life ([4]; 170 mg/m^2 (lyophilized formulation), 1 hour IV infusion, first dose (first cycle), N 3, read-out: T1/2 (converted)): 45.5 h | AUC(0-t) [4, 15]: 27100 ng·h/mL | Cmax [4, 15]: 1360 ng/mL | Tmax ([4]; 250 mg/m^2 (lyophilized formulation), 1 hour IV infusion, first dose (first cycle), N 2, median): 1 h | half-life ([4]; 250 mg/m^2 (lyophilized formulation), 1 hour IV infusion, first dose (first cycle), N 2, read-out: T1/2 (converted)): 83.3 h | half-life ([4]; first dose, 25-250 mg/m^2 IV infusion over 1 hour, read-out: Mean elimination half-life): 23.2 to 83.3 h | bound (Plasma protein binding): 99.8% | fraction unbound (Plasma protein binding; read-out: averaged unbound fraction): 0.002
